In US20060263830A1, “Interfacial biomaterials” (priority 2001, published 2006):
One block for each substance: values may come before it.

What was measured:
[1] = system: adult human dermal fibroblasts (NHDFs); test: NHDF adhesion to IFBM-coated polystyrene; format: cell-based
Experimental: (§1) First, a 1.0 mg/ml solution of FFPYSHLGVLSSG-PEG (SEQ ID NO:104) was prepared in water. The solution was added to the wells of a 96 well polystyrene culture plate and incubated at 50° C. overnight. The wells were then washed twice with PBS before seeding with 300 μl of either cell type. Human fibroblast and endothelial cells were also seeded on untreated polystyrene (N=3) and peptide (non-pegylated) coated polystyrene (N=3). After overnight incubation at 37° C., the wells were washed 5 times in excess PBS, then fixed in ethanol and stained with eosin Y for cell counting and optical microscopy. Both NHDF and HUVEC cells lose their rounded morphology, spread, and adhere to the untreated control plastic. At higher magnification, marked membrane ruffling is evident.

[2] = system: human umbilical vein endothelial cells (HUVECs); test: HUVEC adhesion to IFBM-coated polystyrene; format: cell-based
Experimental: as §1

[3] = system: human umbilical vein endothelial cells (HUVECs); test: HUVEC adhesion and spreading on binding-agent-coated polystyrene wells; format: cell-based; conditions: 25 mg/mL coating; light microscopy after 1-hour, 2-hour or overnight culture; vs polystyrene-binding peptide lacking cell-binding domain or uncoated
Experimental: A 25 mg/mL solution was prepared using a binding agent comprising the peptide sequence RGDFLSFVFPASAWGG (SEQ ID NO:72) in a mixture of 90 parts PBS pH 7.4 and 10 parts DMSO. Fifty (50) μl of the binding agent solution was to each of three wells of a 96-well polystyrene microtiter plate for a duration of 1 hour. In another 3 wells, 50 μl of a control peptide 25 mg/ml fluorescein-labeled FLSFVFPASAWGG (SEQ ID NO:1) was added. The wells were washed three times with PBS and non-specific protein binding sites were blocked with sterile-filtered BSA (3% in PBS) for 30 minutes with shaking at 25 rpm. […] Following 4 washes with PBS, human umbilical vein endothelial cells (HUVECs) in supplemented EBM media were seeded onto each well. Cell adhesion and spreading was monitored by light microscopy following a 1-hour, 2-hour, or overnight culture.

[4] = Phage panning and ELISA for binding to polyurethane; conditions: phage-displayed peptide, SCX16S library
Experimental: To detect phage that specifically bound to titanium, conventional ELISAs were performed using an anti-M13 phage antibody conjugated to HRP, followed by the addition of chromogenic agent o-phenylenediamine in 10% hydrogen peroxide. Relative binding strengths of the phage were determined by absorbance measurements at 490 nm using a microtiter plate reader.
The SCX16S library (described in Example 1) was screened for binding to polyurethane. Phage were detected, isolated, amplified, and sequenced as described in Example 2.

Human chondrocytes = test: Cell panning of phage library on chondrocytes; format: cell-based; conditions: phage-displayed peptide
Excerpt: The SCX16S library (described in Example 1) was screened for binding to chondrocytes. The peptides of the library were of the format SCX16S, including 16 central random amino acids, terminal fixed serines and a single cysteine residue.
Human chondrocytes were obtained from Clonetics, Inc. (San Diego, Calif., United States of America) and grown to confluency on one well of a polystyrene 6-well plate in supplemented F-12 media (Sigma-Aldrich Corp., St. Louis, Mo., United States of America). The entire cell panning procedure was free of detergent. The library was pre-cleared of phage that specifically or non-specifically bind polystyrene by incubating phage in polystyrene wells for two hours prior to addition to the cellular target. In each round, nonspecific binding sites were blocked using 5% dry milk in PBS. Phage were detected, isolated, amplified, and sequenced as described in Example 2. A representative peptide has the sequence SCSVYDHKIGRDSFYSGCS (SEQ ID NO:101). A representative peptide also has a preference for chondrocytes greater than 10 fold over endothelial cells.

[5] = AFM pull-off force measurements on polystyrene; format: binding; conditions: peptide on gold-coated AFM cantilever, PBS buffer, 300 nm/sec
Excerpt: The adhesion strength and mode of binding are both IFBM and substrate dependent. To characterize and quantify the adhesion forces between IFBMs and synthetic and biological substrates, a state-of-the-art force spectrometer that employs a high precision, piezo driven flexure stage equipped with a capacitive displacement sensor with a position resolution of about 0.5 nm was used. A polystyrene binding peptide from the X6YX6 peptide library was used (a cysteine-terminated peptide containing the polystyrene-binding domain in the forward direction; CGSSLVGLHSYWSSPFF; SEQ ID NO:117). The cysteine-terminated peptides were then linked to a gold-coated atomic force microscope (AFM) cantilever by incubating the cantilever in a solution of the peptide (1 mg/ml). Pull-off force measurements were carried out in PBS buffer solution on a MultiMode AFM (Digital Instruments, now Veeco Instruments, Inc., Woodbury, N.Y., United States of America) by repeatedly engaging a polystyrene surface with the modified cantilever tip at a speed of 300 nm/sec. The mean adhesion force for the peptide was approximately 300 pN.

[6] = 1.0 mg/ml coating, overnight incubation at 37° C.
[7] = coated vs untreated polystyrene

Substance: FFPYSHLGVLSSG-PEG (PEG conjugated; Polystyrene-binding peptide 104) [SEQ ID NO:104, multi-functional peptide or interfacial biomaterial (IFBM) with PEG cell-repelling segment]
cell morphology and attachment on treated polystyrene [1, 6]: maintain a round morphology and are not tightly adhered to the surface
cell adhesion (cell counting) [1, 7]: substantially lessened
cell number (cell counting) [1, 7]: dramatically reduced
cell morphology and attachment on treated polystyrene [2, 6]: maintain a round morphology and are not tightly adhered to the surface
cell adhesion (cell counting) [2, 7]: substantially lessened
cell number (cell counting) [2, 7]: dramatically reduced

Substance: FLSFVFPASAWGGSSGRGD [SEQ ID NO:72]
cell adhesion and spreading [3]: increased cell adhesion and cell spreading

specific binding to polyurethane [4]: specifically binds
Substance: SCYVNGHNSVWVVVFWGVS (Polyurethane-binding peptide 1) [SEQ ID NO:23]

Substance: SCSVYDHKIGRDSFYSGCS (Chondrocyte-binding peptide 101) [SEQ ID NO:101]
preference for chondrocytes over endothelial cells (Human chondrocytes): greater than 10 fold

Substance: CGSSLVGLHSYWSSPFF (Polystyrene-binding peptide 117) [SEQ ID NO:117]
mean adhesion force [5]: approximately 300 pN
